Earlier results, collected in patent publication US20160287599A1, “SUBSTITUTED 1,2,4-TRIAZINE-3,5-DIONES AND THE USE THEREOF AS CHYMASE INHIBITORS” (BAYER PHARMA AKTIENGESELLSCHAFT, priority 2013, published 2016).

Test system: chymase
Settings: hamsters, myocardial infarction model

CCOc1ccccc1CC1C(=O)N(C(=O)NC(c2ccc(C)cc2)c2ccc(C)cc2)C1Oc1ccc(C(=O)O)cc1 (stereo not drawn) [BCEAB]
chymase activity: reduced
haemodynamics: improved
mortality: reduced
